Reference: ChEMBL document CHEMBL2203217, “Prohormone-substrate peptide sequence recognition by peptidylglycine α-amidating monooxygenase and its reflection in increased glycolate inhibitor potency” (Bioorg Med Chem Lett, 2012)

Experiments:
[1] = target: T1, Peptidyl-glycine alpha-amidating monooxygenase (Homo sapiens, UniProt P19021); assay: Competitive inhibition of secreted PAM in human DMS53 cell culture medium using as(R)-Tyr-(S)-Val-Gly as substrate after 2 hrs by HPLC analysis; parameters: species or system DMS-53
T1 sequence (P19021 whole entry): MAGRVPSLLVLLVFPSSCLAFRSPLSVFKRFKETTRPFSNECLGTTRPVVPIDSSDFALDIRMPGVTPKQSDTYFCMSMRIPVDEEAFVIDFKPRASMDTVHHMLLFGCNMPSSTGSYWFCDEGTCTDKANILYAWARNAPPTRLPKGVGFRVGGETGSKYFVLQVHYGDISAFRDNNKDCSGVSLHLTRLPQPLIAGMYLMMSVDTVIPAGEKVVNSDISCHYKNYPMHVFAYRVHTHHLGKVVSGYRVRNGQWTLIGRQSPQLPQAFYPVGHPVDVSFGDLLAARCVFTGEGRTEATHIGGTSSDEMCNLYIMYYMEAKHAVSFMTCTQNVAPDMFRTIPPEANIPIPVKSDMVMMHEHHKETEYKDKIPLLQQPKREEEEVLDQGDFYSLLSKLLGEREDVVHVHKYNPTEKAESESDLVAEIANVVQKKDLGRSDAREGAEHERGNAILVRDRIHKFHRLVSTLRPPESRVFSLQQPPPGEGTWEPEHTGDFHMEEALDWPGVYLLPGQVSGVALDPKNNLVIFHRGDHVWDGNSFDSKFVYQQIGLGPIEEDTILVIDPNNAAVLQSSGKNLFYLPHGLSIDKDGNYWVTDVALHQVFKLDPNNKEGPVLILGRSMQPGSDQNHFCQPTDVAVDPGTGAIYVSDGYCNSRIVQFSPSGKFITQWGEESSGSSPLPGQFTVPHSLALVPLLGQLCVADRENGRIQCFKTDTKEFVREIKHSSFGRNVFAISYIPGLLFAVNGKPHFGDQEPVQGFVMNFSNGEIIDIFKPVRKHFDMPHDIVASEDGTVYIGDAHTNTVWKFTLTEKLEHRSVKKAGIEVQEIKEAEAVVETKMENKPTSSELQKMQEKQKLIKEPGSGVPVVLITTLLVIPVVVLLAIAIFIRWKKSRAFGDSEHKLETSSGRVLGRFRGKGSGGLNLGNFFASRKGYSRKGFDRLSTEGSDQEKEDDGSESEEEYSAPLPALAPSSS

[2] = target: T1, Peptidyl-glycine alpha-amidating monooxygenase; assay: Competitive inhibition of PAM in human DMS53 cells using as(R)-Tyr-(S)-Val-Gly as substrate after 2 hrs by HPLC analysis; type: cell-based, DMS-53

Row | SMILES | IC50 [1] [µM] | IC50 [2] [µM]
1 | C[C@H](N)C(=O)N[C@@H](Cc1ccccc1)C(=O)OCC(=O)O | 370 | 350
2 | N[C@@H](Cc1ccccc1)C(=O)OCC(=O)O | 1600 | 1100
